Target: Glycogen phosphorylase, muscle form (Oryctolagus cuniculus) (UniProt P00489)
Assay: Tested for inhibition constant against glycogen phosphorylase b
Set-up: scale not given here

Chain of Glycogen phosphorylase, muscle form (Oryctolagus cuniculus) (P00489 whole entry, looked up): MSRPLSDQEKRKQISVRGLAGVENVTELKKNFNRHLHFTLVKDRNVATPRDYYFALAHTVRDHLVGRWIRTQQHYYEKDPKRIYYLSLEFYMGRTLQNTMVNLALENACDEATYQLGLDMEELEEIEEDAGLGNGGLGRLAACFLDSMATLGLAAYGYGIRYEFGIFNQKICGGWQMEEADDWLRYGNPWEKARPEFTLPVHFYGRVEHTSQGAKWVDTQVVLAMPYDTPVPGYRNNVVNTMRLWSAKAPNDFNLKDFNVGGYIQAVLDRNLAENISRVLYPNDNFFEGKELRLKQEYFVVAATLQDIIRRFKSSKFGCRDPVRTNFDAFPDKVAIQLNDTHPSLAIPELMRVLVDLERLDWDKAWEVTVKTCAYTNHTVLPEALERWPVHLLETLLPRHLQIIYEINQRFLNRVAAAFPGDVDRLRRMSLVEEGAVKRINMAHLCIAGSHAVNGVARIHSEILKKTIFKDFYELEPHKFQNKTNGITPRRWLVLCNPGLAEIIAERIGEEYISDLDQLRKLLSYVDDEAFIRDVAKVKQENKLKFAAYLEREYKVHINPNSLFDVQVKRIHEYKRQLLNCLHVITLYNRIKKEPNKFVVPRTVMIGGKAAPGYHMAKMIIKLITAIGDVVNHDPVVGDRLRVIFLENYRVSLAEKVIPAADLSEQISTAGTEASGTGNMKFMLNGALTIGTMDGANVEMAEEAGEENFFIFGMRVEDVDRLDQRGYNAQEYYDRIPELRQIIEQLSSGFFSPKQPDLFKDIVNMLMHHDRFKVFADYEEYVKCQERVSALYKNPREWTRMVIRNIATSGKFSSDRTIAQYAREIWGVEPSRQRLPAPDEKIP

| SMILES | Exp Inhib Constant |
| --- | --- |
| OC[C@H]1O[C@@H](Oc2cc3ccccc3[nH]2)[C@H](O)[C@@H](O)[C@@H]1O | 0.96 |
| [N-]=[N+]=NC[C@H]1O[C@H](CO)[C@@H](O)[C@H](O)[C@H]1O | 3.11 |
| O=C(CCl)N[C@H]1O[C@H](CO)[C@@H](O)[C@H](O)[C@H]1O | -3.22 |
| [N-]=[N+]=NC[C@@H]1O[C@H](CO)[C@@H](O)[C@H](O)[C@H]1O | 2.72 |
| OC[C@H]1O[C@H](OCC2O[C@@H](O)[C@H](O)[C@@H](O)[C@@H]2O)[C@H](O)[C@@H](O)[C@H]1O (stereo not given in full) | 2.79 |
| NC(=O)CS[C@H]1O[C@H](CO)[C@@H](O)[C@H](O)[C@H]1O | 3.05 |
| OCc1ccccc1O[C@H]1O[C@H](CO)[C@@H](O)[C@H](O)[C@H]1O | 2.15 |
| CS(=O)(=O)OC[C@]1(O)O[C@@H](CO)[C@@H](O)[C@H](O)[C@@H]1O | 1.31 |
| NNC(=O)[C@@H]1O[C@H](CO)[C@@H](O)[C@H](O)[C@H]1O (stereo in doubt; 35) | -0.92 |
| N#CC[C@]1(O)O[C@H](CO)[C@@H](O)[C@H](O)[C@H]1O | 2.03 |
| CS(=O)(=O)OCC1OC(CO)C(O)C(O)C1O (stereo not given) | 1.57 |
| [N-]=[N+]=NC[C@@]1(O)O[C@@H](CO)[C@@H](O)[C@H](O)[C@@H]1O | 2 |
| OC[C@@H]1O[C@@](O)(CO)[C@@H](O)[C@@H](O)[C@@H]1O | 2.76 |
| O=C(Nc1ccccc1)C1OC(CO)C(O)C(O)C1O (stereo not given) | 2.53 |
| O=C(Nc1ccc(O)cc1)C1OC(CO)C(O)C(O)C1O (stereo not given) | 1.72 |
| OCC1OC(F)C(F)C(O)C1O (stereo not given) | -1.61 |
| NNC(=O)[C@@H]1O[C@H](CO)[C@@H](O)[C@H](O)[C@H]1O (stereo in doubt; 25) | 1.1 |
| O[C@@H]1[C@@H](O)[C@@H](O)O[C@H](CS)[C@H]1O | 0.69 |

Further lines, results first:

| Exp Inhib Constant | SMILES |
| --- | --- |
| -1.61 | NC(=O)[C@@H]1O[C@H](CO)[C@@H](O)[C@H](O)[C@H]1O |
| 3.21 | CO[C@@H]1O[C@H](CO)[C@H](O)[C@H](O)[C@H]1O |
| 3.09 | OCC1OC(CO)C(O)C(O)C1O (stereo in doubt; 10) |
| 3.6 | NC(=O)[C@H]1O[C@H](CO)[C@@H](O)[C@H](O)[C@H]1O |
| 3.19 | COC(=O)C1OC(CO)C(O)C(O)C1O (stereo in doubt; 31) |
| 2.2 | N#CC[C@@H]1O[C@H](CO)[C@@H](O)[C@H](O)[C@H]1O |
| -0.99 | NC(=O)C1OC(CO)C(O)C(O)C1O (stereo in doubt; 20) |
| 0.92 | COC(=O)C1OC(CO)C(O)C(O)C1O (stereo in doubt; 33) |
| 3.23 | OCCO[C@@H]1O[C@H](CO)[C@@H](O)[C@H](O)[C@H]1O |
| 1.5 | NCCC1OC(CO)C(O)C(O)C1O (stereo not given) |
| 2.49 | CO[C@H]1O[C@H](CO)[C@H](O)[C@H](O)[C@H]1O |
| 3.97 | CC1OC(CO)C(O)C(O)C1O (stereo not given) |
| 3.54 | NCC1OC(CO)C(O)C(O)C1O (stereo in doubt; 14) |
| 2.82 | NCC1OC(CO)C(O)C(O)C1O (stereo in doubt; 15) |
| 0.41 | OCC1OC(CO)C(O)C(O)C1O (stereo in doubt; 9) |
| 0 | OCC1OC(S)C(O)C(O)C1O (stereo not given) |
| -0.82 | NC(=O)C1OC(CO)C(O)C(O)C1O (stereo in doubt; 27) |

From ChEMBL document CHEMBL1127755, “Comparative molecular field analysis using GRID force-field and GOLPE variable selection methods in a study of inhibitors of glycogen phosphorylase b” (J Med Chem, 1994)
